{"source": "paper PMC11217419", "about": "“TRP14 is the rate-limiting enzyme for intracellular cystine reduction and regulates proteome cysteinylation” (The EMBO Journal, 2024)", "target": "T1, TXDC-17 (C. elegans TRP14) (Caenorhabditis elegans, UniProt Q9BL27)", "T1 construct": "recombinant, purified with the same methodologies as the human orthologue", "T1 sequence (Q9BL27 1-132)": "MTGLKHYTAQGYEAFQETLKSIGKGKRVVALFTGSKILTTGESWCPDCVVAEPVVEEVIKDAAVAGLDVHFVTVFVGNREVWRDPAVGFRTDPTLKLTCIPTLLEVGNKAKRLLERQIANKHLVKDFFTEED", "experiment": "coupled cystine reduction assay with C. elegans TRXR-1", "assay_type": "biochemical", "details": "with C. elegans TRXR-1 as reductase", "data": [{"smiles": "N[C@@H](CSSC[C@H](N)C(=O)O)C(=O)O", "note": "[cystine]", "values": [{"measurement": "coupled cystine reduction assay with C. elegans TRXR-1", "value": "TXDC-17, together with its native reductase, could efficiently reduce cystine in vitro"}]}]}
